Measured values from PMC9698773, “Design, Synthesis, Molecular Modeling, and Anticancer Evaluation of New VEGFR-2 Inhibitors Based on the Indolin-2-One Scaffold” (Pharmaceuticals, 2022).
Values joined by “and” are separate entries in the source; they are usually repeats but may differ in a detail not shown here. Identical values can stand only once.

System: caspase-9
Test: Caspase-9 expression assay (quantitative real-time PCR)
Format: cell-based, human
Settings: HepG2, 1.13 µM, 24 h; control = 1
Protocol: The gene expression fold change of caspase-3 and -9 in the HepG2 cells treated with 1.13 µM of compound 17a for 24 h was determined using quantitative real-time PCR analysis.
The expression of caspase-3 and -9 in the liver HepG2 cells treated with 1.13 μM of 17a was determined using quantitative real-time PCR analysis, as presented in the Supplementary Materials.
Pharmaceuticals 2022, 15, x FOR PEER REVIEW 3 of 22
Figure S1. Simple linear regression for the correlation between cytotoxicity against HepG2 cell line […]
Figure S2. Simple linear regression for the correlation between cytotoxicity against MCF‐7 cell line […]
4.2.3. Cell cycle analysis
To determine the role of the synthesized compounds in cell cycle distribution, cell cycle analysis was performed using propidium iodide (PI) staining and flow cytometry analysis for compound 17a. […] The stained cells were measured using a BD FACSCalibur™ Flow Cytometer, and the data were analyzed using Flowing software (version 2.5.1, Turku Centre for Biotech‐ […]
Flow cytometry cell apoptosis analysis was used to investigate the apoptotic effect of the synthesized compounds. […] The stained cells were measured using a BD FACSCalibur™ Flow Cytometer and analyzed using Flowing software. […]
The expression of BAX and Bcl‐2 proteins were determined using Western blot anal‐ ysis. […]

Compound: O=C1Nc2ccccc2C1=Nc1ccc(C(=O)NNC(=S)Nc2ccccc2)cc1 [Compound 17a, 2-(4-((2-Oxoindolin-3-ylidene)amino)benzoyl)-N-phenylhydrazinecarbothioamide]
- Gene Expression Fold Change (Normalized to β-Actin) Caspases-9: 3.7 fold and 3.703 fold
